According to patent US20170190671A1, “BIS(ARYL)CATECHOL DERIVATIVES AS HERBICIDES” (E I DU PONT DE NEMOURS AND COMPANY, priority 2014, published 2017):

What was measured:
Format in all cases: in vivo
Conditions in all cases: scale 0 to 100
[1] = tested on: oilseed rape (Brassica napus); experiment: Test D preemergence
Summary of the method: (§1)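 Seeds were sown in silt loam for preemergence treatment, or in peat/vermiculite medium for postemergence sprays at 2–18 cm (1- to 4-leaf stage). Test chemicals were in a non-phytotoxic solvent with surfactant. After 14–21 days in a controlled environment, plants were visually rated against controls on a 0–100 scale (0 no effect, 100 complete control).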

[2] = tested on: bluegrass (annual bluegrass, Poa annua); experiment: Test D preemergence
Summary of the method: as §1

[3] = tested on: spring wheat (Triticum aestivum); experiment: Test D preemergence
Summary of the method: as §1

kochia (Kochia scoparia) [4] = experiment: Test D preemergence
Summary of the method: as §1

[5] = tested on: pigweed (Amaranthus retroflexus); experiment: Test D preemergence
Summary of the method: as §1

[6] = tested on: galium (catchweed bedstraw, Galium aparine); experiment: Test D postemergence
Summary of the method: as §1

[7] = tested on: Russian thistle (Salsola kali); experiment: Test D postemergence
Summary of the method: as §1

[8] = tested on: field violet (Viola arvensis); experiment: Test D postemergence
Summary of the method: as §1

[9] = tested on: green foxtail (Setaria viridis); experiment: Test D postemergence
Summary of the method: as §1

[10] = tested on: wild radish (Raphanus raphanistrum); experiment: Test D postemergence
Summary of the method: as §1

[11] = tested on: winter wheat (Triticum aestivum); experiment: Test D postemergence
Summary of the method: as §1

[12] = tested on: cutleaf geranium (Geranium dissectum); experiment: Test D postemergence
Summary of the method: as §1

[13] = tested on: wild mustard (Sinapis arvensis); experiment: Test D postemergence
Summary of the method: as §1

[14] = tested on: speedwell (bird's-eye speedwell, Veronica persica); experiment: Test D postemergence
Summary of the method: as §1

[15] = tested on: spring barley (Hordeum vulgare); experiment: Test D postemergence
Summary of the method: as §1

[16] = tested on: spring wheat (Triticum aestivum); experiment: Test D postemergence
Summary of the method: as §1

[17] = tested on: lambsquarters (Chenopodium album); experiment: Test D postemergence
Summary of the method: as §1

[18] = tested on: winter barley (Hordeum vulgare); experiment: Test D postemergence
Summary of the method: as §1

[19] = tested on: chamomile (scentless chamomile, Matricaria inodora); experiment: Test D postemergence
Summary of the method: as §1

kochia (Kochia scoparia) [20] = experiment: Test D postemergence
Summary of the method: as §1

[21] = tested on: deadnettle (henbit deadnettle, Lamium amplexicaule); experiment: Test D postemergence
Summary of the method: as §1

With `Fc1cnc(Oc2c(F)cccc2Oc2ncc(Cl)cn2)nc1` [Compound 23] the “Plant response rating, Oilseed Rape” value ([1]; 16 g ai/ha) was 80, the “Plant response rating, Oilseed Rape” value ([1]; 31 g ai/ha) was 85 and the “Plant response rating, Oilseed Rape” value ([1]; 62 g ai/ha) was 98. For the same molecule, the “Plant response rating, Oilseed Rape” value ([1]; 125 g ai/ha) was 100, the “Plant response rating, Bluegrass” value ([2]; 16 g ai/ha) was 20 and the “Plant response rating, Bluegrass” value ([2]; 31 g ai/ha) was 65. For the same molecule, the “Plant response rating, Bluegrass” value ([2]; 62 g ai/ha) was 80, the “Plant response rating, Bluegrass” value ([2]; 125 g ai/ha) was 100 and the “Plant response rating, Wheat, Spring” value ([3]; 16 g ai/ha) was 0. The “Plant response rating, Wheat, Spring” value ([3]; 31 g ai/ha) was 5, the “Plant response rating, Wheat, Spring” value ([3]; 62 g ai/ha) was 30 and the “Plant response rating, Wheat, Spring” value ([3]; 125 g ai/ha) was 45. The “Plant response rating, Kochia” value (kochia (Kochia scoparia) [4]; 16 g ai/ha) was 15, the “Plant response rating, Kochia” value (kochia (Kochia scoparia) [4]; 31 g ai/ha) was 60 and the “Plant response rating, Kochia” value (kochia (Kochia scoparia) [4]; 62 g ai/ha) was 60. For the same molecule, the “Plant response rating, Kochia” value (kochia (Kochia scoparia) [4]; 125 g ai/ha) was 100, the “Plant response rating, Pigweed” value ([5]; 16 g ai/ha) was 98 and the “Plant response rating, Pigweed” value ([5]; 31 g ai/ha) was 100. The “Plant response rating, Pigweed” value ([5]; 62 g ai/ha) was 100, the “Plant response rating, Pigweed” value ([5]; 125 g ai/ha) was 100 and the “Plant response rating, Galium” value ([6]; 16 g ai/ha) was 65. The “Plant response rating, Galium” value ([6]; 31 g ai/ha) was 70, the “Plant response rating, Galium” value ([6]; 62 g ai/ha) was 85 and the “Plant response rating, Galium” value ([6]; 125 g ai/ha) was 85. The “Plant response rating, Russian Thistle” value ([7]; 16 g ai/ha) was 0, the “Plant response rating, Russian Thistle” value ([7]; 31 g ai/ha) was 5 and the “Plant response rating, Russian Thistle” value ([7]; 62 g ai/ha) was 10. For the same molecule, the “Plant response rating, Russian Thistle” value ([7]; 125 g ai/ha) was 15, the “Plant response rating, Field Violet” value ([8]; 16 g ai/ha) was 15 and the “Plant response rating, Field Violet” value ([8]; 31 g ai/ha) was 60. The “Plant response rating, Field Violet” value ([8]; 62 g ai/ha) was 60, the “Plant response rating, Field Violet” value ([8]; 125 g ai/ha) was 70 and the “Plant response rating, Foxtail, Green” value ([9]; 16 g ai/ha) was 10. The “Plant response rating, Foxtail, Green” value ([9]; 31 g ai/ha) was 10, the “Plant response rating, Foxtail, Green” value ([9]; 62 g ai/ha) was 15 and the “Plant response rating, Foxtail, Green” value ([9]; 125 g ai/ha) was 20. The “Plant response rating, Radish, Wild” value ([10]; 16 g ai/ha) was 25, the “Plant response rating, Radish, Wild” value ([10]; 31 g ai/ha) was 80 and the “Plant response rating, Radish, Wild” value ([10]; 62 g ai/ha) was 80. The “Plant response rating, Radish, Wild” value ([10]; 125 g ai/ha) was 85, the “Plant response rating, Wheat, Winter” value ([11]; 16 g ai/ha) was 0 and the “Plant response rating, Wheat, Winter” value ([11]; 31 g ai/ha) was 0. The “Plant response rating, Wheat, Winter” value ([11]; 62 g ai/ha) was 0, the “Plant response rating, Wheat, Winter” value ([11]; 125 g ai/ha) was 0 and the “Plant response rating, Geranium, Cutleaf” value ([12]; 16 g ai/ha) was 25. The “Plant response rating, Geranium, Cutleaf” value ([12]; 31 g ai/ha) was 45, the “Plant response rating, Geranium, Cutleaf” value ([12]; 62 g ai/ha) was 45 and the “Plant response rating, Geranium, Cutleaf” value ([12]; 125 g ai/ha) was 65. For the same molecule, the “Plant response rating, Mustard, Wild” value ([13]; 16 g ai/ha) was 25, the “Plant response rating, Mustard, Wild” value ([13]; 31 g ai/ha) was 35 and the “Plant response rating, Mustard, Wild” value ([13]; 62 g ai/ha) was 65. For the same molecule, the “Plant response rating, Mustard, Wild” value ([13]; 125 g ai/ha) was 95, the “Plant response rating, Speedwell” value ([14]; 16 g ai/ha) was 40 and the “Plant response rating, Speedwell” value ([14]; 31 g ai/ha) was 75. For the same molecule, the “Plant response rating, Speedwell” value ([14]; 62 g ai/ha) was 100, the “Plant response rating, Speedwell” value ([14]; 125 g ai/ha) was 100 and the “Plant response rating, Barley, Spring” value ([15]; 16 g ai/ha) was 0. The “Plant response rating, Barley, Spring” value ([15]; 31 g ai/ha) was 5, the “Plant response rating, Barley, Spring” value ([15]; 62 g ai/ha) was 5 and the “Plant response rating, Barley, Spring” value ([15]; 125 g ai/ha) was 10. For the same molecule, the “Plant response rating, Wheat, Spring” value ([16]; 16 g ai/ha) was 0, the “Plant response rating, Wheat, Spring” value ([16]; 31 g ai/ha) was 5 and the “Plant response rating, Wheat, Spring” value ([16]; 62 g ai/ha) was 5. For the same molecule, the “Plant response rating, Wheat, Spring” value ([16]; 125 g ai/ha) was 10, the “Plant response rating, Lambsquarters” value ([17]; 16 g ai/ha) was 10 and the “Plant response rating, Lambsquarters” value ([17]; 31 g ai/ha) was 30. For the same molecule, the “Plant response rating, Lambsquarters” value ([17]; 62 g ai/ha) was 60, the “Plant response rating, Lambsquarters” value ([17]; 125 g ai/ha) was 60 and the “Plant response rating, Barley, Winter” value ([18]; 16 g ai/ha) was 0. The “Plant response rating, Barley, Winter” value ([18]; 31 g ai/ha) was 5, the “Plant response rating, Barley, Winter” value ([18]; 62 g ai/ha) was 5 and the “Plant response rating, Barley, Winter” value ([18]; 125 g ai/ha) was 5. For the same molecule, the “Plant response rating, Chamomile” value ([19]; 16 g ai/ha) was 0, the “Plant response rating, Chamomile” value ([19]; 31 g ai/ha) was 0 and the “Plant response rating, Chamomile” value ([19]; 62 g ai/ha) was 0. For the same molecule, the “Plant response rating, Chamomile” value ([19]; 125 g ai/ha) was 5, the “Plant response rating, Kochia” value (kochia (Kochia scoparia) [20]; 16 g ai/ha) was 15 and the “Plant response rating, Kochia” value (kochia (Kochia scoparia) [20]; 31 g ai/ha) was 20. The “Plant response rating, Kochia” value (kochia (Kochia scoparia) [20]; 62 g ai/ha) was 30, the “Plant response rating, Kochia” value (kochia (Kochia scoparia) [20]; 125 g ai/ha) was 50 and the “Plant response rating, Deadnettle” value ([21]; 16 g ai/ha) was 10. The “Plant response rating, Deadnettle” value ([21]; 31 g ai/ha) was 20, the “Plant response rating, Deadnettle” value ([21]; 62 g ai/ha) was 55 and the “Plant response rating, Deadnettle” value ([21]; 125 g ai/ha) was 70.
